pEC50, pKi: −log10 of the molar value.
Experiments:
[1] = molecular target: Human LATS2 catalytic domain (Homo sapiens (Human), UniProt Q9NRM7); assay: LATS2 High ATP HTRF Assay; format: biochemical; conditions: no asterisk: LATS2 High ATP HTRF Assay, 5000 μM ATP, 0.05 nM LATS2
Experimental: Human LATS2 catalytic domain which contains the amino acids G553-V1088 (accession NP_055387) was purified in-house. The LATS2 catalytic domain was co-purified with Mob1b (accession NP_775739). The LATS2 biochemical HTRF assay was performed using the HTRF KinEASE-STK S1 Kit (Cisbio, Cat #62ST1PEC), following the protocol from the manufacturer. Compounds were dispensed by the Echo Liquid Handler (Labcyte) into a white 384-well plate (PerkinElmer, Cat #6008289). 3 uL of 2×LATS2 enzyme solution was added to the compounds, following by a 10 minute incubation at room temperature. Then, 2×ATP and STK S1 peptide solution was added to initiate the one hour enzyme reaction at room temperature. The final condition of the reaction was 0.2 nM LATS2, 50 μM ATP, 0.5 μM STK S1 peptide in 50 mM HEPES pH7.2, 10 mM MgCl2, 0.1% BGG, 0.005% Brij-35, 1 mM DTT. The reaction was quenched by adding 6 uL of the detection mixture which contained Streptavidin XL665 and STK Antibody-Cryptate (Cisbio), incubate for 1 hour at room temperature. The HTRF (665 nm/620 nm) signal was read on the Envision plater reader (PerkinElmer). The IC50 values were determined by fitting the % inhibition with a nonlinear four-parameter logistical equation. The Ki values were calculated using the Cheng-Prusoff equation for a competitive inhibitor, IC50═Ki (1+S/Km)+M [E] with ATP Km for LATS2=105 μM.
The LATS2 high ATP HTRF assay was performed using the same protocol as the Standard LATS2 HTRF assay. The final condition of the reaction was 0.05 nM LATS2, 5000 μM ATP, 0.5 μM STK S1 peptide in 50 mM HEPES pH7.2, 10 mM MgCl2, 0.1% BGG, 0.005% Brij-35, 1 mM DTT and the 2 hours enzyme reaction at room temperature.

[2] = tested on: TAZ nuclear translocation in SW1990 cells; assay: TAZ Nuclear Translocation Assay; format: cell-based; conditions: Homo sapiens, 4 hours
Experimental: The SW1990 cells (ATCC, CRL2172) were seeded at 5000 cells/well by adding 30 μL/well of cells in RPMI1640, 10% FBS, 2 mM glutamine culture media to a 384-well plate (Greiner 781091). The cells were incubated overnight at 37° C. Next day, test compounds were directly added to the cells using the Echo Liquid Handler (Labcyte), incubate at 37° C. for 4 hours. The cells were fixed with 4% paraformaldehyde and incubate for 20 minutes at room temperature. After washing three times with 100 μL PBS, 0.5% Triton X-100 was added to permeabilize the cells, incubate at room temperature for 5 minutes, following by washing the cells three times with PBS. 3% BSA was added to the cells, incubate for one hour at room temperature, following by washing three times with PBS. 50 μL of 1:750 diluted rabbit Anti-TAZ (Cell signaling D316D) in 3% BSA was added to the cells, incubate at 4° C. overnight. Next day, after washing the cells three times with PBS, 50 μL of 1:1250 diluted donkey anti-Rabbit, Alexa Fluor 488 (Invitrogen A21206) and 1:6250 diluted Hoechst 33342 (Molecular Probes H-21492) in 3% BSA was added to the cells, incubate at room temperature for one hour. The cells were washed three times with PBS, then image with the CellInsight CX7 High-Content Imager. The ratio of nuclear mean fluorescence intensity and cytoplasmic ring region mean fluorescence intensity was calculated. The % inhibition was normalized using DMSO as 0% inhibition and an inhibitor control as 100% inhibition. The EC50 values were calculated by fitting the % inhibition with a nonlinear four-parameter logistical equation.

Human LATS2 catalytic domain, sequence (Q9NRM7 553-1088): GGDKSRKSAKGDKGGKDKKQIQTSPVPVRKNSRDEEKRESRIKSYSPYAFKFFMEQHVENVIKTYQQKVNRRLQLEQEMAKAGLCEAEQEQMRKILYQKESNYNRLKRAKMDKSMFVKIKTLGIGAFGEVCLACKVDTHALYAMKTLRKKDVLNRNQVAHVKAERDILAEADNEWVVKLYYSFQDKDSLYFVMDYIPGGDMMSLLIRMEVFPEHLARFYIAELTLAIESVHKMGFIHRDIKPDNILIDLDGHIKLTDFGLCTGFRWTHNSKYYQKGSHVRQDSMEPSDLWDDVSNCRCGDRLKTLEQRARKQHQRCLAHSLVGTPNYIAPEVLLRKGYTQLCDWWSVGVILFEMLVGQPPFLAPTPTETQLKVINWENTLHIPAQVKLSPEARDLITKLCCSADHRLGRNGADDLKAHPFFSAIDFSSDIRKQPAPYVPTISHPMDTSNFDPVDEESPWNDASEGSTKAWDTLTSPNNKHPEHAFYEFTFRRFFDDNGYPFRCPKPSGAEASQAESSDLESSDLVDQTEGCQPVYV
Human LATS2 catalytic domain, sequence (Q7L9L4 whole entry partner, the tested form may be a part): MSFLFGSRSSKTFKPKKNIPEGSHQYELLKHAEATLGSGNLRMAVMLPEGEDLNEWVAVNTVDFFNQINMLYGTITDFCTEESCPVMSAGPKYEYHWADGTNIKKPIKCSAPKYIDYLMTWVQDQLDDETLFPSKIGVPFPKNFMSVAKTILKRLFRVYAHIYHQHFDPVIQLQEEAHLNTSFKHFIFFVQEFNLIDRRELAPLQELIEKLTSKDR

| Compound | pKi [1] | pEC50 [2] |
| --- | --- | --- |
| O[C@@H]1CC[C@H](N2CCC3(CCN(c4nc(-c5ccncc5)nc5cnccc45)CC3)C2)C1 (single isomer, unassigned) [Compound 170] | 9.54 | 6.42 |
| Cc1[nH]ncc1-c1nc(N2CCC3(CC2)CCN([C@H]2CC[C@H]2O)C3)c2ccncc2n1 (single isomer, unassigned) [Example 231] | 9.96 | 6.05 |
| CNC(=O)C1CC2(CCN(c3nc(-c4ccncc4)nc4cnccc34)CC2)CN1 (stereo not drawn) [Compound 172, N-methyl-8-(2-(pyridin-4-yl)pyrido[3,4-d]pyrimidin-4-yl)-2,8-diazaspiro[4.5]decane-3-carboxamide] | 9.19 | 5.19 |
| Cc1n[nH]c(C)c1-c1nc(N2CCC3(CCNC3)CC2)c2ccncc2n1 [Compound 241, 2-(3,5-Dimethyl-1H-pyrazol-4-yl)-4-(2,8-diazaspiro[4.5]decan-8-yl)pyrido[3,4-d]pyrimidine] | 8.85 | < 5.00 |
| Cc1n[nH]cc1-c1nc(N2CCC3(CCN(CCO)C3)CC2)c2ccncc2n1 [Compound 146, 2-(8-(2-(3-methyl-1H-pyrazol-4-yl)pyrido[3,4-d]pyrimidin-4-yl)-2,8-diazaspiro[4.5]decan-2-yl)ethan-1-ol] | 10.06 | 5.57 |
| Clc1[nH]ncc1-c1nc(N2CCC3(CCNC3)CC2)c2ccncc2n1 [Compound 153, 2-(5-chloro-1H-pyrazol-4-yl)-4-(2,8-diazaspiro[4.5]decan-8-yl)pyrido[3,4-d]pyrimidine] | 9.96 | < 5.00 |
| O[C@H]1COC[C@@H]1N1CCC2(CCN(c3nc(-c4ccncc4)nc4cnccc34)CC2)C1 (single isomer, unassigned) [Compound 177] | 9.41 | 5.60 |
| Cc1n[nH]cc1-c1nc(N2CCC3(CCN(CCF)C3)CC2)c2ccncc2n1 [Example 219, 4-(2-(2-fluoroethyl)-2,8-diazaspiro[4.5]decan-8-yl)-2-(3-methyl-1H-pyrazol-4-yl)pyrido[3,4-d]pyrimidine] | 10.17 | 6.34 |
| CNc1cc2c(N3CCC4(CCN(C)C4)CC3)nc(-c3ccncc3)nc2cn1 [Example 214, N-methyl-4-(2-methyl-2,8-diazaspiro[4.5]decan-8-yl)-2-(pyridin-4-yl)pyrido[3,4-d]pyrimidin-6-amine] | 8.00 | 6.07 |
| N#CCCN1CCC2(CCN(c3nc(-c4ccncc4)nc4cnccc34)CC2)C1 [Compound 136, 3-(8-(2-(pyridin-4-yl)pyrido[3,4-d]pyrimidin-4-yl)-2,8-diazaspiro[4.5]decan-2-yl)propanenitrile] | 9.35 | 5.49 |
| O[C@@H]1COC[C@H]1N1CCC2(CCN(c3nc(-c4ccncc4)nc4cnccc34)CC2)C1 (single isomer, unassigned) [Compound 176] | 9.03 | 5.75 |
| c1cc(-c2cc3cnccc3c(N3CCC4(CCNC4)CC3)n2)ccn1 [Example 199, 3-(Pyridin-4-yl)-1-(2,8-diazaspiro[4.5]decan-8-yl)-2,6-naphthyridine] | 8.48 | 5.21 |
| CCc1cncc2nc(-c3ccncc3)nc(N3CCC4(CCNC4)CC3)c12 [Example 204, 5-Ethyl-2-(pyridin-4-yl)-4-(2,8-diazaspiro[4.5]decan-8-yl)pyrido[3,4-d]pyrimidine] | 8.96 | 6.00 |

Stronger by pKi [1], values ahead:

| pKi [1] | pEC50 [2] | Compound |
| --- | --- | --- |
| 10.47 | 6.68 | CN1CCC2(CCN(c3nc(-c4ccncc4)nc4cncc(OC5COC5)c34)CC2)C1 [Compound 269, 4-(2-Methyl-2,8-diazaspiro[4.5]decan-8-yl)-5-(oxetan-3-yloxy)-2-(pyridin-4-yl)pyrido[3,4-d]pyrimidine] |
| 10.41 | 5.32 | CC(C)(O)C#Cc1nccc2c(N3CCC4(CCNC4)CC3)nc(-c3ccncc3)nc12 [Compound 245, 2-methyl-4-(2-(pyridin-4-yl)-4-(2,8-diazaspiro[4.5]decan-8-yl)pyrido[3,4-d]pyrimidin-8-yl)but-3-yn-2-ol] |
| 10.55 | 6.44 | FCOc1cncc2nc(-c3ccncc3)nc(N3CCC4(CCNC4)CC3)c12 [Compound 267, 5-(fluoromethoxy)-2-(pyridin-4-yl)-4-(2,8-diazaspiro[4.5]decan-8-yl)pyrido[3,4-d]pyrimidine] |
| 10.59 | 6.96 | Cc1n[nH]cc1-c1nc(N2CCC3(CCN(C)C3)CC2)c2cc(Cn3cc(Cl)cn3)ncc2n1 [Compound 190, 6-((4-chloro-1H-pyrazol-1-yl)methyl)-2-(3-methyl-1H-pyrazol-4-yl)-4-(2-methyl-2,8-diazaspiro[4.5]decan-8-yl)pyrido[3,4-d]pyrimidine] |
| 10.52 | 6.37 | c1cc(-c2nc(N3CCC4(CC3)CCN(C3CCCCC3)C4)c3ccncc3n2)ccn1 [Compound 119, 4-(2-cyclohexyl-2,8-diazaspiro[4.5]decan-8-yl)-2-(pyridin-4-yl)pyrido[3,4-d]pyrimidine] |
| 10.28 | 6.08 | Cc1n[nH]cc1-c1nc(N2CCC3(CCN(CC4COC4)C3)CC2)c2ccncc2n1 [Compound 152, 2-(3-methyl-1H-pyrazol-4-yl)-4-(2-(oxetan-3-ylmethyl)-2,8-diazaspiro[4.5]decan-8-yl)pyrido[3,4-d]pyrimidine] |
| 10.41 | 6.03 | Cc1n[nH]cc1-c1nc(N2CCC3(CCN(C[C@@H](C)O)C3)CC2)c2ccncc2n1 (single isomer, unassigned) [Compound 145] |
| 10.37 | 6.59 | COc1cncc2nc(-c3c[nH]nc3C)nc(N3CCC4(CCN(CC5COC5)C4)CC3)c12 [Compound 273, 5-methoxy-2-(3-methyl-1H-pyrazol-4-yl)-4-(2-(oxetan-3-ylmethyl)-2,8-diazaspiro[4.5]decan-8-yl)pyrido[3,4-d]pyrimidine] |
| 10.20 | 5.68 | Cc1[nH]ncc1-c1nc(N2CCC3(CC2)CCN([C@H]2CC[C@@H]2O)C3)c2ccncc2n1 (single isomer, unassigned) [Example 229] |
| 10.35 | 5.60 | Cc1n[nH]cc1-c1nc(N2CCC3(CCN(CCCO)C3)CC2)c2ccncc2n1 [Compound 149, 3-(8-(2-(3-methyl-1H-pyrazol-4-yl)pyrido[3,4-d]pyrimidin-4-yl)-2,8-diazaspiro[4.5]decan-2-yl)propan-1-ol] |
| 10.23 | 6.55 | Cc1n[nH]cc1-c1nc(N2CCC3(CCN(CC(C)(C)O)C3)CC2)c2ccncc2n1 [Compound 150, 2-methyl-1-(8-(2-(3-methyl-1H-pyrazol-4-yl)pyrido[3,4-d]pyrimidin-4-yl)-2,8-diazaspiro[4.5]decan-2-yl)propan-2-o0] |
| 10.20 | 6.38 | FCCCN1CCC2(CCN(c3nc(-c4ccncc4)nc4cnccc34)CC2)C1 [Compound 135, 4-(2-(3-fluoropropyl)-2,8-diazaspiro[4.5]decan-8-yl)-2-(pyridin-4-yl)pyrido[3,4-d]pyrimidine] |
| 10.70 | 6.74 | FC(F)Oc1cncc2nc(-c3ccncc3)nc(N3CCC4(CCNC4)CC3)c12 [Compound 274, 5-(difluoromethoxy)-2-(pyridin-4-yl)-4-(2,8-diazaspiro[4.5]decan-8-yl)pyrido[3,4-d]pyrimidine] |
| 10.21 | 5.37 | Cc1n[nH]cc1-c1nc(N2CCC3(CCNC3)CC2)c2ccnc(Cl)c2n1 [Example 232, 8-chloro-2-(3-methyl-1H-pyrazol-4-yl)-4-(2,8-diazaspiro[4.5]decan-8-yl)pyrido[3,4-d]pyrimidine] |

— patent US20240174696A1, “2,8-DIAZASPIRO[4.5]DECANE COMPOUNDS” (Genentech, Inc., priority 2021, published 2024)
